Experimental data taken from ChEMBL document CHEMBL1201862, “PubChem BioAssay data set” (2004).
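How tested: cells in 96-well plates exposed to compound for 48 hours at five concentrations. GI50 is the concentration that inhibits growth by half.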 Calls of active or inactive are those of the source. Cut-off read from the data, not from the text of the source: active = GI50 up to about 1.1 µM and inactive = higher. Where a SMILES comes first, the peptide text is derived from it. The star is where a group is joined. Cbz = O=C(OCc1ccccc1)*; Boc = CC(C)(C)OC(=O)*; tBu = CC(C)(C)*

Key:
Experiment in all cases: growth of human tumour cells (NCI), 48 h
[1] = tested on: HCT-116
[2] = tested on: CAKI-1
[3] = tested on: 786-0
[4] = tested on: K562
[5] = tested on: MDA-N
[6] = tested on: CCRF-CEM
[7] = tested on: SW-620
[8] = tested on: NCI/ADR-RES
[9] = tested on: PC-3
[10] = tested on: RXF 393
[11] = tested on: M14
[12] = tested on: HOP-62
[13] = tested on: T47D
[14] = tested on: MDA-MB-231
[15] = tested on: LOX IMVI
[16] = tested on: UACC-257
[17] = tested on: MCF7
[18] = tested on: EKVX
[19] = tested on: OVCAR-5
[20] = tested on: HCT-15

Row | SMILES | GI50 [1] | GI50 [2] | GI50 [3] | GI50 [4] | GI50 [5] | GI50 [6] | GI50 [7] | GI50 [8] | GI50 [9] | GI50 [10] | GI50 [11] | GI50 [12] | GI50 [13] | GI50 [14] | GI50 [15] | GI50 [16] | GI50 [17] | GI50 [18] | GI50 [19] | GI50 [20] [µM]
1 | C[C@@H](NC(=O)Cn1c(Cl)nc2ccccc21)c1ccccc1 | > 100 µM (inactive) | > 100 µM (inactive) | > 100 µM (inactive) | > 100 µM (inactive) | > 100 µM (inactive) | > 100 µM (inactive) | > 100 µM (inactive) | 33 µM (inactive) | > 100 µM (inactive) | > 100 µM (inactive) | > 100 µM (inactive) | > 100 µM (inactive) | 36.2 µM (inactive) | > 100 µM (inactive) | 75.7 µM (inactive) | > 100 µM (inactive) | > 100 µM (inactive) | 26.7 µM (inactive) | > 100 µM (inactive) | > 100
2 | CC(OC(C)(C)C)C(NC(=O)C(CCCCNC(=O)OC(C)(C)C)NC(=O)C(Cc1c[nH]c2ccccc12)NC(=O)C(Cc1ccccc1)NC(=O)OCc1ccccc1)C(=O)NC(Cc1ccccc1)C(=O)O (stereo not given) (Cbz-FWK(Boc)T(tBu)F-OH; configuration not given here) | 36.6 µM (inactive) | > 100 µM (inactive) | > 100 µM (inactive) | 28.8 µM (inactive) | 38.5 µM (inactive) | 28.1 µM (inactive) | 75.2 µM (inactive) | > 100 µM (inactive) | 34.8 µM (inactive) | > 100 µM (inactive) | > 100 µM (inactive) | > 100 µM (inactive) | 28.4 µM (inactive) | 40.2 µM (inactive) | 29.4 µM (inactive) | > 100 µM (inactive) | 31.1 µM (inactive) | > 100 µM (inactive) | 33.1 µM (inactive) | 73.6
3 | CSc1ccccc1NC1=NCCO1 | > 100 µM (inactive) | > 100 µM (inactive) | > 100 µM (inactive) | > 100 µM (inactive) | > 100 µM (inactive) | > 100 µM (inactive) | > 100 µM (inactive) | > 100 µM (inactive) | > 100 µM (inactive) | > 100 µM (inactive) | > 100 µM (inactive) | > 100 µM (inactive) | > 100 µM (inactive) | > 100 µM (inactive) | > 100 µM (inactive) | > 100 µM (inactive) | > 100 µM (inactive) | > 100 µM (inactive) | > 100 µM (inactive) | > 100
4 | C=C(C)[C@@H]1CC[C@]2(C(=O)OC3OC(COC4OC(CO)C(OC5OC(C)C(O)C(O)C5O)C(O)C4O)C(O)C(O)C3O)CC[C@]3(C)[C@H](CC[C@@H]4[C@@]5(C)CC[C@H](O)[C@@](C)(CO)[C@@H]5CC[C@]43C)[C@@H]12 (stereo not given in full) | 2.18 µM (inactive) | 3.4 µM (inactive) | 3.98 µM (inactive) | 0.802 µM (active) | 4.58 µM (inactive) | 0.043 µM (active) | 2.16 µM (inactive) | 2.91 µM (inactive) | 2.6 µM (inactive) | 5.06 µM (inactive) | 3.48 µM (inactive) | 3.61 µM (inactive) | 3.4 µM (inactive) | 3.56 µM (inactive) | 2.58 µM (inactive) | 4.63 µM (inactive) | 3.02 µM (inactive) | 2.2 µM (inactive) | 6.81 µM (inactive) | 2.39
5 | Cc1c(C#N)c2nnn(-c3cccc(Cl)c3)c(=O)n2c1-c1ccccc1 | 2.03 µM (inactive) | 6.62 µM (inactive) | 2.99 µM (inactive) | 0.541 µM (active) | 0.428 µM (active) | 3.66 µM (inactive) | 4.3 µM (inactive) | 3.1 µM (inactive) | 0.875 µM (active) | 1.85 µM (inactive) | 4.17 µM (inactive) | 0.891 µM (active) | 4.25 µM (inactive) | 1.57 µM (inactive) | 7.5 µM (inactive) | 26.3 µM (inactive) | 4.02 µM (inactive) | 5.69 µM (inactive) | 3.75 µM (inactive) | 3.83
